One data set relates to SW620 Yap KO cells. Nature of the data set: Viability assay in SW620 Yap KO (Yap independent) cells, CyQUANT. The class given is cell-based. The following applies: Homo sapiens, SW-620, SW620 YAP/TAZ knock-out (YAP independent) cells, 96 hour incubation. The protocol: The ability of YAP-TEAD inhibitors to inhibit tumor cell growth was evaluated using two different cell lines: NCI-H226, which is a YAP dependent cell line, and SW620 cells, where YAP and TAZ were knocked out using CRISPR to generate a YAP independent cell line.
For the assay, cells were treated in duplicates with the test compounds in a 10-point dose, 1:3 dilution steps, with the top concentration starting at 30 μM (final concentration in assay). After a 96 hour incubation at 37° C., 95% rH, and 5% CO2, a cell-permeant DNA-binding dye that stains only healthy cells (CyQUANT®, Promega) was added to the cells, allowing the quantification of cell viability.
Cell Media: The NCI-H226 cells were cultured in the following media: RPMI 1640, +10% FBS, +1× GlutaMAX, +10 mM HEPES, +0.5% Pen/Strep. The SW620-KO cells were cultured in the following media: DMEM/F-12, +10% FBS, +1× GlutaMAX, +10 mM HEPES, +0.5% Pen/Strep.
Reagents: The reagents used are listed below:
Cell culture: The cells were examined using an inverted microscope to check for health, cell density, etc. To dissociate adherent cells, the monolayer of cells was washed once with pre-warmed PBS. After removing the PBS, 3 ml pre-warmed Accutase was added to a F75 flask, dispersed evenly and the flask was allowed to sit in incubator for ˜4-5 minutes.
When a single cell suspension was obtained, 7 ml of prewarmed growth media was added and resuspended with the cells. The cell suspension was transferred to a sterile 15 ml conical centrifuge tube, and spun for 5 min at 300×g, RT. The supernatant was discarded and the pellet was resuspended in 10 ml of pre-warmed growth media.
The total cell count was determined, and 20 μl of the desired cell number was added to each well of a 384 well plate using a Multidrop Combi. The plates were then incubated for 24 hours at 37° C., 95% rH, and 5% CO2.
Compound treatment: 24 hours after seeding, the cells were treated with compounds.
A 1:333 dilution of compounds, diluted in DMSO, was made to get a final concentration of 0.3% DMSO per well. To transfer the compounds to the assay plate, 120 nl was shot from Labcyte low dead volume plates to the cell plates containing 20 μl media/well with the ECHO 555 liquid handling system.
After treatment, the cells were fed with 20 μl fresh pre-warmed assay media using a Multidrop combi.
The assay plates were then incubated for 96 h at 37° C., 95% rH, and 5% CO2.
96h after treatment 30 μl of CyQuant® reagent was added to the assay plates using a Multidrop combi in the dark. The plates were then incubated for 1 hour at 37° C., 95% rH and 5% CO2. Thereafter, the assay plates were removed from the incubator and allowed to equilibrate to RT for 30 min in the dark without lid. Finally, they were measured using an EnVision microplate reader with a FITC bottom read program.
Experimental data in the Viability assay of the compounds shown in Table 1 are shown in Table 3 below and classified in the following groups: […]

The next data set deals with NCI-H226 cells. In words: Viability assay in NCI-H226 (Yap-dependent) cells, CyQUANT. The class given is cell-based. The following applies: Homo sapiens, 96 hour incubation.
The subject of the next data set is YAP-TEAD interaction. In words: SK-HEP-1 reporter assay (8x TEAD responsive elements driving NanoLuc luciferase). Type of data set: cell-based. The following applies: Homo sapiens, SK-HEP1; SK-HEP-1 TEAD-NanoLuc reporter cells, 24 hour incubation, luciferase readout. The method, boiled down:
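SK-HEP-1 cells carrying stable 8× TEAD-element NanoLuc reporter, treated in duplicate with 10-point doses (top 30 μM final, 0.3% DMSO) for 24 h at 37 °C. Luciferase activity read by NanoGlo luminescence; IC50 values derived.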
In general terms: Reporter assays use an easily measured gene product as a stand-in for the process of interest.

These results are taken from patent publication US20230278958A1 (Merck Patent GmbH, priority 2020, published 2023).

A value given as a limit tells only on which side of the number the result lay.

A word on the IC50: it is the concentration at which inhibition is half-maximal. The term melting point denotes the temperature of the solid-liquid transition.

On to `O=C(O)c1ccc2c(c1)c1cc(Cc3ccccc3)ccc1n2-c1ccc(C(F)(F)F)cc1` [Compound 1, 6-benzyl-9-[4-(trifluoromethyl)phenyl]-9H-carbazole-3-carboxylic acid], for which the results for the IC50 in the data set on SW620 Yap KO cells, in the data set with NCI-H226 cells and in the data set on YAP-TEAD interaction were > 10 µM, 0.1 to 1 µM and 100 to 1000 nM, respectively.
On the same counts, the results for `Cc1cccc2c1c1cc(C(=O)O)ccc1n2-c1ccc(C(F)(F)F)cc1` [Compound 6, 5-methyl-9-[4-(trifluoromethyl)phenyl]-9H-carbazole-3-carboxylic acid] are > 10 µM, 0.001 to 0.1 µM and 1 to 10 nM.
In the same order, the values of `O=C(O)c1ccc2c(c1)c1ccccc1n2-c1ccc(C(F)(F)F)cc1` [Compound 8, 9-[4-(trifluoromethyl)phenyl]-9H-carbazole-3-carboxylic acid] are > 10 µM, 0.1 to 1 µM and 10 to 100 nM.
Regarding `Cc1ccc2c(c1)c1cc(C(=O)O)ccc1n2-c1ccc(C(F)(F)F)cc1` [Compound 10, 6-methyl-9-[4-(trifluoromethyl)phenyl]-9H-carbazole-3-carboxylic acid], the IC50 in the data set on SW620 Yap KO cells was > 10 µM; with NCI-H226 cells, 0.001 to 0.1 µM; in the data set with YAP-TEAD interaction, 1 to 10 nM.
Turning to `COc1ccc2c(n1)c1cc(C(=O)O)ccc1n2-c1ccc(C(F)(F)F)cc1` [Compound 19, 2-methoxy-5-[4-(trifluoromethyl)phenyl]-5H-pyrido[3,2-b]indole-8-carboxylic acid], the melting point was in the range of 245 to 247 °C. In addition, the IC50 in the data set on NCI-H226 cells lay in the range of 0.1 to 1 µM. The IC50 in the data set on YAP-TEAD interaction lay in the range of 1 to 10 nM.
On the same counts, the results for `Cc1ccc2c3cc(C(=O)O)ccc3n(-c3ccc(C(F)(F)F)cc3)c2c1` [Compound 20, 7-methyl-9-[4-(trifluoromethyl)phenyl]-9H-carbazole-3-carboxylic acid] are 250 to 252 °C, 1 to 10 µM and 10 to 100 nM.
For the compound `CNC(=O)c1ccc2c(c1)c1cc(C)ccc1n2-c1ccc(C(F)(F)F)cc1` [Compound 21, N,6-dimethyl-9-[4-(trifluoromethyl)phenyl]-9H-carbazole-3-carboxamide], the melting point was in the range of 184 to 186 °C. The IC50 in the data set with SW620 Yap KO cells fell in the range of 1 to 10 µM. Moreover, in the data set on NCI-H226 cells, the IC50 lay within 0.001 to 0.1 µM. The same compound displayed an IC50 with YAP-TEAD interaction of 1 to 10 nM.
On the same counts, the results for `CNC(=O)c1ccc2c(c1)c1nc(C)ccc1n2-c1ccc(C(F)(F)F)cc1` [Compound 22, N,2-dimethyl-5-[4-(trifluoromethyl)phenyl]-5H-pyrido[3,2-b]indole-8-carboxamide] are 134 to 136 °C, > 10 µM, 0.001 to 0.1 µM and 10 to 100 nM.
For the compound `CNC(=O)c1ccc2c(c1)c1cc(F)ccc1n2-c1ccc(C(F)(F)F)cc1` [Compound 23, 6-fluoro-N-methyl-9-[4-(trifluoromethyl)phenyl]-9H-carbazole-3-carboxamide], the melting point lay within 270 to 272 °C. The same compound had an IC50 in the data set with NCI-H226 cells of 0.001 to 0.1 µM. Besides, the IC50 in the data set on YAP-TEAD interaction lay within 10 to 100 nM.
On the same counts, the results for `CNC(=O)c1ccc2c(c1)c1ccc(C)cc1n2-c1ccc(C(F)(F)F)cc1` [Compound 26, N,7-dimethyl-9-[4-(trifluoromethyl)phenyl]-9H-carbazole-3-carboxamide] are 230 to 232 °C, 0.1 to 1 µM and 10 to 100 nM.
Turning to `CNC(=O)c1ccc2c(c1)c1nc(OC)ccc1n2-c1ccc(C(F)(F)F)cc1` [Compound 27, 2-methoxy-N-methyl-5-[4-(trifluoromethyl)phenyl]-5H-pyrido[3,2-b]indole-8-carboxamide], the melting point was 180 to 182 °C. Besides, the IC50 in the data set with SW620 Yap KO cells is > 10 µM. The compound further displayed an IC50 in the data set with NCI-H226 cells of 0.001 to 0.1 µM. The IC50 with YAP-TEAD interaction was 10 to 100 nM.
`CNC(=O)c1ccc2c(c1)c1cc(C(C)C)ccc1n2-c1ccc(C(F)(F)F)cc1` [Compound 28, N-methyl-6-(propan-2-yl)-9-[4-(trifluoromethyl)phenyl]-9H-carbazole-3-carboxamide] returned a melting point of 141 to 142 °C. Further, the IC50 in the data set on SW620 Yap KO cells was 1 to 10 µM. In the data set on NCI-H226 cells, this compound showed an IC50 of 0.1 to 1 µM. Besides, the IC50 in the data set with YAP-TEAD interaction was 10 to 100 nM.
The compound `CNC(=O)c1ccc2c(c1)c1nc(C(F)(F)F)ccc1n2-c1ccc(C(F)(F)F)cc1` [Compound 29, N-methyl-2-(trifluoromethyl)-5-[4-(trifluoromethyl)phenyl]-5H-pyrido[3,2-b]indole-8-carboxamide] yielded a melting point of 225 to 227 °C. Besides, the IC50 in the data set on NCI-H226 cells is > 10 µM. Moreover, the IC50 with YAP-TEAD interaction was 100 to 1000 nM.
In the same order, the values of `CNC(=O)c1ccc2c(c1)c1cc(C(F)(F)F)ccc1n2-c1ccc(C(F)(F)F)cc1` [Compound 30, N-methyl-6-(trifluoromethyl)-9-[4-(trifluoromethyl)phenyl]-9H-carbazole-3-carboxamide] are 242 to 244 °C, 1 to 10 µM and 10 to 100 nM.
For the compound `CNC(=O)c1ccc2c(c1)c1cc(C#N)ccc1n2-c1ccc(C(F)(F)F)cc1` [Compound 33, 6-cyano-N-methyl-9-[4-(trifluoromethyl)phenyl]-9H-carbazole-3-carboxamide], the melting point lay in the range of 270 to 272 °C. The IC50 in the data set on NCI-H226 cells was in the range of 0.001 to 0.1 µM. The IC50 in the data set with YAP-TEAD interaction fell in the range of 10 to 100 nM.
On the same counts, the results for `O=C(O)c1cc2c3cccnc3n(-c3ccc(C(F)(F)F)cc3)c2cn1` [Compound 35, 8-[4-(trifluoromethyl)phenyl]-5,8,10-triazatricyclo[7.4.0.0^2,^7]trideca-1(9),2,4,6,10,12-hexaene-4-carboxylic acid] are 185 to 188 °C, 0.1 to 1 µM and 10 to 100 nM.
